Tests used:
MOZ-KAT6A [1] = molecular target: T1, MOZ-KAT6A (Homo sapiens, UniProt Q92794, A567V); test: Acetyltransferase biochemical assay (AlphaScreen), KAT6A; conditions: Table 2 (MOZ-KAT6A); 10 μM Acetyl coenzyme A, histone H3.1, 5 nM enzyme
T1 construct: encoding amino acid residues 507 to 778 (Uniprot Q92794-1) of human KAT6A; made in house; host or cells: E. coli BL21 DE3

QKF-KAT6B [2] = molecular target: T2, QKF-KAT6B (Homo sapiens, UniProt Q8WYB5); test: Acetyltransferase biochemical assay (AlphaScreen), KAT6B; conditions: Table 5 (QKF-KAT6B); 0.4 μM Acetyl coenzyme A, histone H3.1, 8 nM enzyme
T2 construct: purchased SignalChem K315-381BG
T2 sequence (Q8WYB5 whole entry): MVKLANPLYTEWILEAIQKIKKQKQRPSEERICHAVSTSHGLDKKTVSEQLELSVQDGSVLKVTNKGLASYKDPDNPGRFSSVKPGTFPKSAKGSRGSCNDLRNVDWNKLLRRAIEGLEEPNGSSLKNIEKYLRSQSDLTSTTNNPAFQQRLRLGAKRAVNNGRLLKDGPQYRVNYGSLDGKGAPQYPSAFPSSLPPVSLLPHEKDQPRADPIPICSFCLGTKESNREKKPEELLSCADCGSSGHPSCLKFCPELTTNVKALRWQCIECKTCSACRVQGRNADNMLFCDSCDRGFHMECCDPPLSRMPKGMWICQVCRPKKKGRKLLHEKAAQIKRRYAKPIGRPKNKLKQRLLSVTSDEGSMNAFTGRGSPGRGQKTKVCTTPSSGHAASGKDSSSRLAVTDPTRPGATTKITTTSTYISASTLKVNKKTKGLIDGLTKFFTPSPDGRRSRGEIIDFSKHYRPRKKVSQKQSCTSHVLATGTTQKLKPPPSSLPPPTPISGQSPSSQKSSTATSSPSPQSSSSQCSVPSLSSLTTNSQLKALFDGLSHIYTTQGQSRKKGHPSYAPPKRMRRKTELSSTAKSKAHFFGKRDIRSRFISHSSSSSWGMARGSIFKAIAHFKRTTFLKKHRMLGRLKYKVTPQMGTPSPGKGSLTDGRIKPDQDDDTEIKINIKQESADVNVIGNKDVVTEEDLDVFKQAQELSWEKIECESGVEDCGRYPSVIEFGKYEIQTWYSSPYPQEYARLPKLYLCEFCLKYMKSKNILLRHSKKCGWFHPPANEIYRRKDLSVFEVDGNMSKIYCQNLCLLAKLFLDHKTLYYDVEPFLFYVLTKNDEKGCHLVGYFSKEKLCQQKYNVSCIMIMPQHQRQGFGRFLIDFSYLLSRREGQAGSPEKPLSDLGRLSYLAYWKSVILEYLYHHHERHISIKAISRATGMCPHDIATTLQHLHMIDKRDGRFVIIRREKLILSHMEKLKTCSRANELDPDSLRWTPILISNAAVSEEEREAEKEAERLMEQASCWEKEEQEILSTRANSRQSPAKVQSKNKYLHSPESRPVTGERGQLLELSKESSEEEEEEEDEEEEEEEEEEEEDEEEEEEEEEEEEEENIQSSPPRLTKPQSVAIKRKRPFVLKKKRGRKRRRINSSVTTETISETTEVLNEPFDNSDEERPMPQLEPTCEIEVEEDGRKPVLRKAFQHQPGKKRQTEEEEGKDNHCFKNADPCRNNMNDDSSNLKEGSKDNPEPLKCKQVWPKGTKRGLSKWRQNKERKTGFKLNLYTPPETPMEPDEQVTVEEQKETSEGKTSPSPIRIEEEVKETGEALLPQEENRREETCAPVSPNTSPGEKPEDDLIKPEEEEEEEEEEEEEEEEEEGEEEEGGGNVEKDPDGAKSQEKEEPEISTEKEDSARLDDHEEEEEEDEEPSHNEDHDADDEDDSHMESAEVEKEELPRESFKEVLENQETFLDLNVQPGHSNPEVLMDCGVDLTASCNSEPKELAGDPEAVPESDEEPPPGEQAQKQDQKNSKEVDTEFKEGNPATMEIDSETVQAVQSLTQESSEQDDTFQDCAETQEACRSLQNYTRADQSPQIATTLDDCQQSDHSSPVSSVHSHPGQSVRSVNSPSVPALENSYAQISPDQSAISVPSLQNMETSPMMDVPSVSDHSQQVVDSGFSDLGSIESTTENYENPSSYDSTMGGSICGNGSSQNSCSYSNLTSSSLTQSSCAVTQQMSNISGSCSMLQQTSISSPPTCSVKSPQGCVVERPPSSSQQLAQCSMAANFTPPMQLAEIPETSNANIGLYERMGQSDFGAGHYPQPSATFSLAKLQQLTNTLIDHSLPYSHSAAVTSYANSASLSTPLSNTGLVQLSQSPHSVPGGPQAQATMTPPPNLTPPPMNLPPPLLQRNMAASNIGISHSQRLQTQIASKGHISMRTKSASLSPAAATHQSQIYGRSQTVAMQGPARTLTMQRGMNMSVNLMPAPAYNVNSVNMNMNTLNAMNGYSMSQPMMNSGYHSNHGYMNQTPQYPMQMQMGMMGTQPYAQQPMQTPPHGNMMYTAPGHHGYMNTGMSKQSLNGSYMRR

TIP60-KAT5 [3] = molecular target: T3, TIP60-KAT5 (Homo sapiens, UniProt Q92993); test: Acetyltransferase biochemical assay (AlphaScreen), KAT5; conditions: Table 1 (TIP60-KAT5); 0.4 μM Acetyl coenzyme A, histone H4, 10 nM enzyme
T3 construct: encoding amino acid residues 2 to 461 (Uniprot Q92993-2) of human KAT5 isoform; made in house; host or cells: E. coli BL21 DE3
T3 sequence (Q92993 2-461 isoform Q92993-2): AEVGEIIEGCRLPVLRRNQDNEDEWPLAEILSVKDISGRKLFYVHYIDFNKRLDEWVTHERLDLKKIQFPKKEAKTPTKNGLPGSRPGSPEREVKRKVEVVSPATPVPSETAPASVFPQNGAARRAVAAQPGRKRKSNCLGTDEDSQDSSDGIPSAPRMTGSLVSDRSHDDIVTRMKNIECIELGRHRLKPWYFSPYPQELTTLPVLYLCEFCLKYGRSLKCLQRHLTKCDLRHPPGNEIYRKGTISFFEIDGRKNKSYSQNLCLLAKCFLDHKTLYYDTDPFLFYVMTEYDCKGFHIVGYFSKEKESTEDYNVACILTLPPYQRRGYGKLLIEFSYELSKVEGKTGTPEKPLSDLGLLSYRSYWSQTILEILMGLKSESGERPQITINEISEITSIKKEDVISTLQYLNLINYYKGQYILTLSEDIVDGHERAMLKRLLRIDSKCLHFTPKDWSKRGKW

HBO-KAT7 [4] = molecular target: T4, HBO-KAT7 (Homo sapiens, UniProt O95251); test: Revised Acetyltransferase Biochemical Assay, KAT7; conditions: Table 9 (HBO-KAT7), 1 μM Acetyl coenzyme A
T4 construct: encoding amino acid residues 325 to 611 (Uniprot 095251-1) of human KAT7; made in house; host or cells: E. coli BL21 DE3 RIL
T4 sequence (O95251 with tags, fused parts or gaps): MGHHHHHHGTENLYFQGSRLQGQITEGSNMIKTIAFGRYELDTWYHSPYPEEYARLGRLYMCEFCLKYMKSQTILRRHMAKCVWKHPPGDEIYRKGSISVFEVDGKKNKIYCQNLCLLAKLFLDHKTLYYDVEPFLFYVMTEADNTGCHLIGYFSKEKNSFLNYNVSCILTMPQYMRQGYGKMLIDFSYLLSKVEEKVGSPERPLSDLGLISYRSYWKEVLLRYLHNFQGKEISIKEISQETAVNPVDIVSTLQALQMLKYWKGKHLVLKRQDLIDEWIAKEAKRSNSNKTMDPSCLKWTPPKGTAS

TIP60-KAT5 [5] = molecular target: T3, TIP60-KAT5; test: Revised Acetyltransferase Biochemical Assay, KAT5; conditions: 10 nM KAT5, 1 μM AcCoA, 100 nM histone H4, 90 min
[6] = test system: histone H3K23 acetylation (KATE mediated) in U2OS cells; test: Histone H3 Lysine 23 Acetylation Biomarker Assay (U2OS); format: cell-based; conditions: Homo sapiens, U2OS, 24 h, 96 well, 24 hours incubation
Outline: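 U2OS cells were treated with compound for 24 h, then fixed and immunostained for H3K23ac with Hoechst nuclear counterstain. Per-nucleus Alexa647 intensity was quantified by high-content imaging and converted to % inhibition against DMSO and 10 μM reference-inhibitor controls. IC50 was derived from a four-parameter logistic fit.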

HBO-KAT7 [7] = molecular target: T4, HBO-KAT7; test: Acetyltransferase biochemical assay (AlphaScreen), KAT7; conditions: Table 3 (HBO-KAT7); 0.4 μM Acetyl coenzyme A, histone H3.1, 40 nM enzyme
[8] = test system: histone H2A.Z Lysine 7 acetylation (TIP60 mediated) in U2OS cells; test: H2A.Z Lysine 7 Acetylation Biomarker Assay (96 well, U2OS); format: cell-based; conditions: Homo sapiens, 24 h, Table 7, H2A.Z K7ac, 24 hours incubation, serum free medium
Description: To discover a global TIP60/KAT5 cellular biomarker useful for monitoring PD responses of TIP60 inhibition in vitro and in vivo, various histone modifications were assessed for TIP60 dependence through genetic (TIP60 siRNA and CRISPR/Cas9) or TIP60 pharmacological inhibition. This analysis clearly identified acetylation of the histone variant H2A.Z at Lysine 7 (H2A.ZK7ac) as a global histone mark which is TIP60-dependent in both human and mouse cells. To a lesser extent, TIP60 also acetylated lysine 4 and 11 of H2A.Z.
Compounds may be tested for their ability to inhibit the histone H2A.Z Lysine 7 acetylation biomarker (which is TIP60 mediated) in the following assay:
(§1) The cell line U2OS was seeded at a density of 9,000 cells per well in 96 well optical quality tissue culture plates in RPMI medium and 10% foetal bovine serum, and allowed to adhere for 24 hours under standard culture conditions (37 degree Celsius, 5% CO2). At the end of this period the cells were washed with serum free medium. Compound dilutions prepared in DMSO were added to the serum free medium, with negative control wells reserved for treatment with DMSO only and positive controls receiving a potent inhibitor compound (e.g. Example 146) at 20 μM concentration. After incubation for 24 hours, the cells were fixed with 3.7% formaldehyde in PBS for 20 minutes at room temperature, washed with phosphate buffer saline containing 0.1% Tween 20 and blocked with Odyssey blocking buffer (LI-COR, Lincoln, Nebr.) containing 0.1% TritonX100. Anti-H2A.Z K7ac specific antibody (Abcam) in Odyssey blocking buffer containing 0.1% Tween 20 was added and incubated for 14 hours at 4 degree Celsius. After washing, a secondary antibody labelled with Alexa647 dye (LifeTechnologies) and Hoechst 33342 (10 μM, SigmaAldrich) were added for 1 hour incubation. Plates were washed and read on a PerkinElmer Phenix high content imaging platform. Using a Columbus image analysis pipeline, individual nuclei were located by Hoechst 33342 stain and the acetylation level was calculated from the Alexa647-related intensity in the same area. The resulting mean intensity per cell was directly converted to percent inhibition relative to controls on the same plate and the data fitted against a four-parameter logistic model to determine the 50% inhibitory concentration (IC50).

QKF-KAT6B [9] = molecular target: T2, QKF-KAT6B; test: Revised Acetyltransferase Biochemical Assay, KAT6B; conditions: 8 nM KAT6B, 1 μM AcCoA, 100 nM histone H3.1, 90 min
Text: KAT6B was obtained from SignalChem, catalog ID: K315-381BG

MOZ-KAT6A [10] = molecular target: T1, MOZ-KAT6A; test: Revised Acetyltransferase Biochemical Assay, KAT6A; conditions: Table 8 (MOZ-KAT6A), 1 μM Acetyl coenzyme A
[11] = test system: histone H3K14 acetylation (HBO1 mediated) in U2OS cells; test: Histone H3 Lysine 14 Acetylation Biomarker Assay (96 well, U2OS); format: cell-based; conditions: Homo sapiens, 24 h, Table 6, H3K14ac, 24 hours incubation, serum free medium
Description: Compounds may be tested for their ability to inhibit acetylation of the histone H3K14 marker (which is HBO1 mediated) in the following assay:
as §1, with “of 12,000” for “of 9,000”, “Example 36 in WO2016/198507)” for “Example 146)”, “at 10” for “at 20”, “TritonX100. Anti-H3K14ac” for “TritonX100. Anti-H2A.Z K7ac”, “antibody (Cell Signalling Technologies)” for “antibody (Abcam)”, “33342 (1 μg/mL,” for “33342 (10 μM,”

T1 sequence (Q92794 507-778 A567V limits assumed): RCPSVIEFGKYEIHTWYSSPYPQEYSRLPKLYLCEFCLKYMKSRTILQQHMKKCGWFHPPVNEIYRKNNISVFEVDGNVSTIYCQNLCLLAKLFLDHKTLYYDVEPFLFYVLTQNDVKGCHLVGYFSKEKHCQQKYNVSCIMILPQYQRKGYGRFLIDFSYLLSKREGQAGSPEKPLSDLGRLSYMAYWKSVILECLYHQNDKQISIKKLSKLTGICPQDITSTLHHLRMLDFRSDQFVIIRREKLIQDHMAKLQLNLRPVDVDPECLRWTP

SMILES: Cn1cc(-c2ccc3c(c2)S(=O)(=O)NC(C(=O)NCC(c2ccccc2)c2ccccc2)=N3)cn1 [Example 18, N-(2,2-diphenylethyl)-7-(1-methyl-1H-pyrazol-4-yl)-2H-benzo[e][1,2,4]thiadiazine-3-carboxamide 1,1-dioxide]
- IC50 (MOZ-KAT6A [1]): 3120 nM
- IC50 (QKF-KAT6B [2]): 268 nM
- IC50 (TIP60-KAT5 [3]): > 125000 nM

SMILES: O=C(NCC(c1ccccc1)c1ncco1)C1=Nc2ccc(I)cc2S(=O)(=O)N1 (stereo not shown) [Example 41, 7-iodo-N-(2-(oxazol-2-yl)-2-phenylethyl)-2H-benzo[e][1,2,4]thiadiazine-3-carboxamide 1,1-dioxide]
- IC50 (MOZ-KAT6A [1]): 17.9 nM
- IC50 (HBO-KAT7 [4]): 59 nM
- IC50 (TIP60-KAT5 [5]): 32 nM
- IC50 [6]: 35 nM
- IC50 (HBO-KAT7 [7]): 94.4 nM
- IC50 [8]: 1000 nM
- IC50 (QKF-KAT6B [9]): 28 nM
- IC50 (MOZ-KAT6A [10]): 5 nM
- IC50 [11]: 86.1 nM
- IC50 (TIP60-KAT5 [3]): 61.3 nM

Reference: patent publication US20210380548A1, “Fused [1,2,4]Thiadiazine Derivatives Which Act as KAT Inhibitors of the MYST Family” (CTxT Pty Limited, priority 2017, published 2021)
